Data taken from patent US20050137522A1, “System for infusing insulin to a subject to improve impaired hepatic glucose processing” (priority 2003, published 2005).
Entries after “also recorded” stand apart in the source; their conditions may differ.

Assays:
Assay type in all cases: in vivo, human
[1] = test system: patients suffering from senile dementia; experiment: Senile dementia in patients treated with Hepatic Activation / the present invention; conditions: diabetic patients with senile dementia
Excerpt: On many occasions patients who have been diabetics as well as having dementia have been treated with the method of the current invention. Dementia appears to be related to poor metabolism of glucose in the brain, which may well be the result of constricted flow of blood. This poor metabolism is at least in part the cause of the dementia.
A diabetic who was suffering from advanced senile dementia was placed in a nursing home because of excessive confusion, weakness, disorientation and lack of memory. Because the nursing home was not keeping up the strict four shot regimen needed by the patient for their diabetic blood sugar control, the patient's children removed the patient from the nursing home. The attending doctor recommended Hepatic Activation. Once the patient was activated, they returned to a totally independent living style.
(§1) For all of the above listed examples, after the initial few days of treatment, the patients underwent treatment once a week, each treatment day consisting of three infusions of insulin accompanied by ingestion of carbohydrates. The infusion device used to infuse the insulin was the BIONICA MD-110 pump. […] The patients' circulating glucose was measured once every thirty minutes by the finger stick method currently used by most diabetic patients. […]

[2] = test system: diabetic patients with retinopathy; experiment: Case reports: retinopathy treated with the subject method
Excerpt: A middle-aged person with type 1 diabetes for 38 years suffered from macular degeneration (retinopathy). They were unable to drive at night. […] The patient has been receiving treatment for 4 years.
A middle-aged type 2 diabetic patient had proliferative diabetic retinopathy with severe bleeding. Multiple photocoagulation scars made additional photocoagulation impossible. […] The patient has been using the subject method for 5 years, and they have had no further bleeding of the retina and no further photocoagulation.
(§2) For all of the above listed examples, after the initial few days of treatment, the patients underwent treatment once a week, each treatment day consisting of three infusions of insulin accompanied by ingestion of carbohydrates. The infusion device used to infuse the insulin was the BIONICA MD-110 pump. Typically there were ten pulses given over a period of one hour, and a rest period of one hour was taken between infusions of insulin. The form in which the carbohydrates were ingested changed from time to time and included eating foods of high glycemic index including but not limited to bread and cake. The patients' circulating glucose was measured once every thirty minutes by the finger stick method currently used by most diabetic patients. […]

[3] = test system: diabetic patients with leg ulcers; experiment: Case reports: diabetes related leg ulcers treated with the subject method; conditions: ulcers not responding to any available therapy, Examples 10 and 11; listed as subject method
Excerpt: An older type 2 diabetic had one amputated leg as a result of diabetes related ulcers on that leg. They had developed ulcers on the other leg that would not respond to any available therapy and was in danger of losing the other leg to amputation. […] This patient used the subject method for several more years, and no additional ulcers formed.
A middle-aged type 1 diabetic patient had developed severe ulcers on both legs, which would not heal with any available treatment. […] The patient has been using the subject method now for 13 years.
as §2

[4] = test system: type 2 diabetic male suffering with autonomic neuropathy; experiment: Case report: elevated blood pressure with autonomic neuropathy treated with the subject method; conditions: before treatment 200/120 despite intensive insulin therapy; 5 years of treatment
Excerpt: An older type 2 diabetic […] suffering with autonomic neuropathy had very elevated blood pressure readings of 200/120 despite a rigorous program to regulate their circulating glucose using intensive insulin therapy of 3 to 4 subcutaneous insulin injections daily. As a result of using the subject method, their blood pressure decreased to 120/80. They have been using the method for 5 years.
(§3) For all of the above listed examples, after the initial few days of treatment, the patients underwent treatment once a week, each treatment day consisting of three infusions of insulin accompanied by ingestion of carbohydrates. The infusion device used to infuse the insulin was the BIONICA MD-110 pump. Typically there were ten pulses given over a period of one hour, and a rest period of one hour was taken between infusions of insulin. The form in which the carbohydrates were ingested changed from time to time and included eating foods of high glycemic index including but not limited to bread and cake. The patients' circulating glucose was measured once every thirty minutes by the finger stick method currently used by most diabetic patients. […] Table 1 below summarizes by the above examples the number of units of insulin per pulse administered and the amount of glucose ingested for each series of pulses: […]

[5] = test system: type 2 diabetic patient with diabetes related kidney disease; experiment: Case report: diabetes related kidney disease (proteinuria) treated with the subject method; conditions: before treatment 1500 milligrams of protein during 24 hours, rising 500 milligrams/24 hours/year; 5 years of treatment
Description: An older type 2 diabetic was exercising and had excellent circulating glucose control under intense insulin therapy including 3-4 injections per day of subcutaneous insulin. Even so, their diabetes related kidney disease had progressed to the point where they were discharging 1500 milligrams of protein during a 24-hour period and the rate of increase was 500 milligrams/24 hours/year. After using the subject method, the patient's proteinuria was reduced to 600-800 milligrams/24 hours. They have been using the method for 5 years.
as §2

[6] = Circulating glucose by finger stick during insulin pulse treatments; conditions: during the first treatment; all examples; finger stick every thirty minutes
Excerpt: as §3

[7] = test system: type 1 DM patients with nephropathy; experiment: 18-month multi-center, prospective, controlled study of CIIIT on progression of diabetic nephropathy
Description: as §2, with “A study was conducted to assess the effects of Chronic Intermittent Intravenous Insulin Therapy (CIIIT) on the progression of diabetic nephropathy in patients with type 1 diabetes mellitus (DM). This 18-month multi-center, prospective, controlled study involved 49 type 1 DM patients with nephropathy who were following the Diabetes Control and Complications Trial (DCCT) intensive therapy (IT) regimen. Of these, 26 patients formed the control group C, which continued on IT, while 23 patients formed the treatment group (T) and underwent, in addition to IT, weekly CIIIT. […] For” for “For”

[8] = test system: diabetic patients with heart disease; experiment: Case reports: diabetic heart disease treated with the subject method
Excerpt: A middle-aged person with type 2 diabetes for 17 years was suffering from severe dilated cardiomyopathy (ejection fraction 14-19%). They were placed on the list to receive a heart transplant prior to starting treatment with the subject method. […] The patient has been receiving treatment for 10 years and is still off the heart transplant list. Their ejection fraction is currently 29-32%.
A middle-aged type 2 diabetic patient had severe heart disease including congestive heart failure and severe artereosclerotic heart disease. The patient was scheduled for heart surgery but because of their poor condition, surgeons refused to operate.
An older type 1 diabetic patient who was diabetic was scheduled for a coronary artery by-pass graft to correct their diabetes related heart disease. The surgeons were reluctant to operate in the condition they were in because of their advanced diabetes related arteriosclerosis. They were scheduled for a single vessel graft. […] They continuing using the subject method for several years after the surgery with no further deterioration in their diabetes related heart disease.
as §3

[9] = test system: diabetic patients with neuropathy; experiment: Case reports: diabetic neuropathy treated with the subject method
Excerpt: A middle-aged person with Type 1 diabetes for more than 22 years suffered from polyneuropathy. They had generalized pain and was unable to walk or even wear stockings because of the pain.
A middle-aged person with Type 1 diabetes for more than 30 years had severe peripheral neuropathy, was in constant pain below the knees and had difficulty sleeping at night. […] They have been using the treatment for eight years.
An elder type 2 diabetic patient had severe painful peripheral neuropathy to the point that they were unable to walk and used a wheelchair. […] Because of financial reasons, they stopped the therapy. As a result, the neuropathy returned, and they returned to using a wheelchair.
A middle-aged type 1 diabetic patient had severe neuropathy. They were a parent of two children who was bed-ridden with autonomic neuropathy before using the subject method two years ago. Their muscles had atrophied, they could not digest their food, they had been told that their nerves were dying inside them as a result of their diabetes. They stated that if they had not have two children, they would have taken their life. They had to quit their job, went on disability and was in an out of the hospital very often. They had welts on their head causing hair loss. They had no sensation in their feet, they had constant nausea, and they couldn't sleep at night because of the pain. They had insulin absorption problems and tried all different ways to improve the absorption of insulin into their body. For a number of years they injected themself intramuscularly because they felt that they obtained the best absorption of insulin that way. […] They have not been in the hospital since. […]
as §1, with “carbohydrates.” for “carbohydrates. The infusion device used to infuse the insulin was the BIONICA MD-110 pump.”

[10] = type 1 patient with severe autonomic neuropathy, Example 14

Substance: insulin [CIIIT]
- senile dementia symptoms ([1]; listed as Hepatic Activation): significant improvement in their motor skills, memory, and cognitive function
- senile dementia symptoms ([1]; listed as present invention): clearly shown improvement in confusion, weakness, disorientation, cognitive function and lack of memory
- eyesight ([2]; type 1 person, macular degeneration (retinopathy), unable to drive at night before treatment, 4 years of treatment): eyesight improved to the point where night driving was no longer a concern
- retinal bleeding ([2]; type 2 male, proliferative diabetic retinopathy with severe bleeding, 5 years of treatment): the bleeding stopped, and there was no further deterioration of the retina
- leg ulcers [3]: the ulcers on their second leg healed; also recorded: the ulcers healed and have never returned
- blood pressure [4]: 120/80
- proteinuria [5]: 600-800 milligrams/24 hours
- rise of circulating glucose levels [6]: 100 to 150 mg/dL
- progression of diabetic nephropathy ([7]; CIIIT added to IT in type 1 DM patients with overt nephropathy): markedly reduce the progression of diabetic nephropathy
- rate of CrCl decline ([7]; type 1 DM patients with nephropathy, 18 months, T group (weekly CIIIT added to IT, 23 patients) vs C group (IT alone, 26 patients), P=0.0343): 2.21±1.62 ml/min/yr
- postoperative recovery ([8]; after by-pass surgery, Examples 6 and 8, listed as subject method): normal postoperative recovery
- insulin intake ([8]; same patient, Example 4, before treatment 150 units a day): 24-26 units/day
- cardiac condition / need or fitness for heart surgery ([8]; single patients, Examples 4, 6, 8, listed as subject method): no longer required a heart transplant; also recorded: could withstand 4-vessel by-pass surgery; also recorded: their condition improved to the point where the doctors performed two instead of one grafts
- ejection fraction ([8]; type 2 diabetic patient, severe dilated cardiomyopathy, before treatment 14-19%, after 10 years of treatment): 29-32%
- neuropathic pain after treatment ([9]; single patients with polyneuropathy / peripheral neuropathy, listed as subject method): the pain has been reduced to the point where the person enjoys rigorous exercise; also recorded: no longer takes pain medication and has no twinges of pain in their legs; also recorded: the pain had subsided to the point where they no longer used a wheelchair
- gastroparesis [9, 10]: Her gastroparesis was reversed
- numbness in legs [9, 10]: The numbness in their legs has gone away
